Test results published in patent US5352815A, “Agent for suppression and interception of mailard reaction” (Asai Germanium Research Institute Co., Ltd., priority 1992, dated 1994).

Assays:
[1] = Example 2: AGE formation from F-lysine (model glycosylated protein; absorbance at 420 nm) and F-lysine decomposition (HPLC); type: biochemical
Procedure: The organogermanium compound (1-1) was added to a phosphate buffer solution containing 10 mM of Nα-t-butoxycarbonyl-Nε-fructose-L-lysine(hereinafter abbreviated to F-lysine) as a model glycosylated protein, so that the final concentration became 0, 1, 5, 10 or 50 mM. Then, incubation was conducted at 40° C. for 15 days, after which the formation of AGE was measured by browning degree (absorbance at 420 nm) and the amount of F-lysine decomposed was measured by HPLC to examine the effect of the organogermanium compound (1-1) added.

proteins in plasma = experiment: Example 4: glycation of plasma proteins in Streptozocin-diabetic rats; type: in vivo, Sprague-Dawley female rats; details: 100 mg per kg, oral in drinking water
Procedure: (§1) Streptozocin was intravenously injected into Sprague-Dawley female rats (total 21 rats each weighing 240-270 g) in an amount of 65 mg per kg of body weight to cause diabetes. Then, the rats were divided into two groups, i.e. a control group and an administered group. An organogermanium compound (1-1) was put into drinking water and orally administered to the administered group at night in an amount of 100 mg per kg of body weight.
4, 8 and 14 weeks after the administration of the organogermanium compound (1-1), blood sampling was made from all the rats of the two groups in hungry state. Each blood taken was measured for blood sugar, glucohemoglobin (hereinafter abbreviated to GHb), glycated albumin (hereinafter abbreviated to GA) and Fructosamine (hereinafter abbreviated to Fru). GHb was measured by affinity chromatography using a mini column, and GA was measured by HPLC using two different columns. The body weight, amount of water taken and amount of food taken, of each rat were also recorded simultaneously.

mice = experiment: Acute oral toxicity in mice (LD50); type: in vivo; details: oral administration
Excerpt: (§2) The organogermanium compound (1) used in the present agent has very low toxicity. In the case of oral administration of the compound (1-1), the LD50 is 6 g or more for mice and 10 g or more for rats.

[2] = Example 5: general observations in Streptozocin-diabetic rats (blood sugar, body weight, water, food); type: in vivo, Sprague-Dawley female rats; details: 100 mg per kg, oral in drinking water; 4, 8 and 14 weeks; vs control group
Procedure: as §1
Incidentally, during the test period, i.e. 4, 8 and 14 weeks after the administration of the organogermanium compound (1-1), there was no difference in blood sugar in hungry state, body weight, amount of water taken and amount of food taken, between the two groups.

abdomen skin collagen = experiment: Example 5: fluorescence of abdomen skin collagen in Streptozocin-diabetic rats; type: in vivo, Sprague-Dawley female rats; details: 100 mg per kg, oral in drinking water; 14 weeks
Procedure: as §1
(§3) 14 weeks after the administration of the organogermanium compound (1-1), all the rats were killed to collect the skin of abdomen and the tendon of tail. Collagen was extracted from each skin and each tendon and treated with collagenase for solubilization. Each of the solubilized collagens was measured for fluorescence at an excitation wavelength of 370 nm and an absorption wave length of 440 nm. At the same time, hydroxyproline was measured by HPLC; a collagen amount was calculated; and the adjustment of fluorescent intensity was made using the value.

[3] = Example 1: Mailard reaction of Nα-t-Boc-lysine (model protein) with glucose; AGE formation (absorbance at 420 nm) and Nα-t-Boc-lysine consumption (HPLC); type: biochemical; details: 40° C.
Procedure: The organogermanium compound (1-1) was added to a phosphate buffer solution (50 mM, pH 7.4) containing 50 mM of Nα-t-butoxycarbonyl-L-lysine (hereinafter abbreviated to Nα-t-Boc-lysine) as a model protein and 1M of glucose, so that the final concentration became 0, 1, 5 or 10 mM. Then, incubation was conducted at 40° C. for 15 days, after which the formation of AGE was measured by browning degree (absorbance at 420 nm) and the amount of Nα-t-Boc-lysine consumed was measured by high-performance liquid chromatography (hereinafter abbreviated to HPLC) to examine the effect of the organogermanium compound (1-1) added.

[4] = Example 3: decomposition of Amadori rearrangement product formed from ribose and alginine (HPLC); type: biochemical; details: 40 mM solution mixed 1:1; 37° C., 24 hours, pH 7.4 (FIG. 6)
Procedure: 20 mg of ribose, 20 mg of alginine and 10 ml of methanol were reacted under refluxing, in a hot bath of 60°-70° C. 10-15 minutes later, 0.1-0.3 ml of acetic acid was added and the reaction was continued for a further 5-10 minutes. Then, the reaction mixture was concentrated under reduced pressure. During the concentration, a small amount of water was added to remove acetic acid. The concentrate was dissolved in 1 ml of water and the solution was subjected to HPLC to collect an Amadori rearrangement product. The product was freeze-dried.
The freeze-dried product of the Amadori rearrangement product was suspended in 4 ml of a sodium phosphate buffer solution (pH 7.4, 0.1M). The suspension was mixed with a sodium phosphate buffer solution containing or not containing 40 mM of the organogermanium compound (1-1), at a 1:1 ratio. The mixture was incubated at 37° C. for 24 hours. Sampling of 0.1 ml was conducted with the lapse of time for immediate analysis by HPLC. When immediate analysis was impossible, the sample was freeze-storedat -20° C.

rats = experiment: Acute oral toxicity in rats (LD50); type: in vivo; details: oral administration
Excerpt: as §2

Fructosamine in serum = experiment: Example 6: serum Fructosamine in diabetes patients; type: in vivo, human (diabetes patients); details: 750 mg/day for 2 months; 20 diabetes patients (FIG. 11)
Procedure: An organogermanium compound (1-1) was administered to 20 diabetes patients (they were diagnosed as diabetes by a 75-g grape sugar loading test) at a dose of 750 mg/day for 2 months. Fructosamine content in serum of each patient was measured before and after the administration.
Fructosamine content in serum was measured by an ordinary method, i.e. by adding a test sample or a reference (a standard Amadori rearrangement product) to a NTB solution, subjecting the mixture to incubation at 37° C., and measuring the developed color.

tail tendon collagen = experiment: Example 5: fluorescence of tail tendon collagen in Streptozocin-diabetic rats; type: in vivo, Sprague-Dawley female rats; details: 100 mg per kg, oral in drinking water; 14 weeks
Procedure: as §1, §3

N=C(N)NN [aminoguanidine, reference compound]
effect in the test of Example 2 (AGE formation and F-lysine consumption) ([1]; compared with compound (1-1), used in its place): substantially no effect

O=C(O)C[CH2][Ge](=[O])[O][Ge](=[O])[CH2]CC(=O)O [compound (1-1)]
consumption of F-lysine (suppressed to) ([1]; 50 mM, 40° C., 15 days, HPLC (FIG. 4)): about 20% | consumption of F-lysine ([1]; 5-50 mM, 40° C., 15 days, HPLC (FIG. 4)): suppressed the consumption of F-lysine | suppression of the formation of AGE ([1]; 5-50 mM, 40° C., 15 days, absorbance at 420 nm (FIG. 3)): suppressed the formation of AGE substantially completely | Fru (Fructosamine) vs control group (proteins in plasma; 8 weeks (FIG. 8)): significantly lower in the administered group | GA (glycated albumin) vs control group (proteins in plasma; 14 weeks): significantly lower in the administered group | Fru (Fructosamine) difference vs control group (proteins in plasma; 14 weeks, compared with 8 weeks): the difference was more significant in 14 weeks | body weight, amount of water taken and amount of food taken (proteins in plasma; test period, vs control group): no difference | GHb (glucohemoglobin) (proteins in plasma; vs control group): lower in the administered group | blood sugar in hungry state (proteins in plasma; vs control group): no difference | LD50 (mice): ≥ 6 g | blood sugar in hungry state [2]: no difference | body weight, amount of water taken and amount of food taken [2]: no difference | fluorescence of skin collagen vs control group (abdomen skin collagen): significantly lower | suppression of the formation of AGE, concentration dependence ([3]; 0, 1, 5 or 10 mM, 15 days (FIG. 1)): suppressed the formation of AGE dependently upon the concentration | consumption of Nα-t-Boc-lysine (suppressed to) ([3]; 10 mM, 15 days, HPLC (FIG. 2)): about 10% | suppression of the formation of AGE ([3]; 5-10 mM, 15 days, pH 7.4, absorbance at 420 nm (FIG. 1)): suppressed the formation substantially completely | alginine increase and unidentified substance peak increase [4]: substantially seen neither alginine increase nor unidentified substance peak increase | decrease of the Amadori rearrangement product [4]: very mild | LD50 (rats): ≥ 10 g | Fructosamine content in serum after vs before administration (Fructosamine in serum): lower after the administration | fluorescence of tendon collagen vs control group (tail tendon collagen): significantly lower
